{
  "source": "patent US8426469B2",
  "about": "“Crystalline leukotriene B4” (LTB4 Sweden AB, priority 2006, dated 2013)",
  "key": {"[1]": {"assay": "solubility of LTB4 in various solvents", "type": "physicochemical", "details": "Table 1; the value is the solvent", "from_the_text": "Table 1 below summarizes the solubility of LTB4 in various solvents."}, "[2]": {"details": "pH 7.0-7.6, stored at 2° C. to 25° C. (and above 25° C.); cited from earlier work"}, "[3]": {"assay": "stability of leukotriene B4 as a function of pH", "type": "physicochemical", "details": "alkaline pH versus neutral or acidic pH", "from_the_text": "Accordingly, in a preferred embodiment, the composition according to the present invention comprises an alkaline reacting carrier. The expression “alkaline reacting carrier”, in the context of the present invention, is intended to include an otherwise inert, pharmaceutically acceptable substance (or substances), which creates an alkaline “micro-pH” between 8.2 and 14, especially between 8.5 and 12.5, such as between 8.5 and 11.5, most preferably between 9.5 and 11.5, such as about 9.5, 9.6, 9.7, 9.8, 9.9, 10.0, 10.1, 10.2, 10.3, 10.4, 10.5, 10.6, 10.7, 10.8, 10.9, 11.0, 11.1, 11.2, 11.3, 11.4, or 11.5, around each LTB4 particle when water is adsorbed to the particles of the mixture or when water is added in small amounts to the mixture. In another preferred embodiment, the alkaline “micro-pH” ranges between 8.0 and 9.0, between 8.5 and 9.5, between 9.0 and 10.0, or between 10.0 and 11.5. […]"}},
  "note": "Entries after “also recorded” stand apart in the source; their conditions may differ.",
  "data": [
    {"compound": "CCCCC/C=C\\C[C@@H](O)/C=C/C=C/C=C\\[C@@H](O)CCCC(=O)O", "note": "[LTB4, 5S,12R-dihydroxy-6,8,10,14(Z,E,E,Z)-eicosatetraenoic acid]", "values": [
      {"measurement": "Slightly soluble or insoluble (solvent in which LTB4 is slightly soluble or insoluble; anti-solvent)", "setting": "[1]", "result": "Toluene; also recorded: Water; also recorded: Heptane"},
      {"measurement": "stability of isotonic aqueous solution", "setting": "[2]", "result": "stable for only short periods of time (weeks to months)"},
      {"measurement": "stability depending on pH", "setting": "[3]", "result": "more stable at alkaline pH than at neutral or acidic pH"}
    ]}
  ]
}
